Data on 2 compounds can be found in publication PMC6435334 (Nature chemical biology, 2018).

Assay [1] deals with D-apionate lactonase / D-apionolactonase (A6X3G3, "hypothetical" protein) (Brucella anthropi, UniProt A6X3G3).
The target in assay [2] is D-apiose dehydrogenase (B9JK80) (Martinezella rhizogenes, UniProt B9JK80). In words: NADH formation, […] nm. The format is biochemical. The conditions noted are these: 1.5 mM NAD+; 50 mM Tris-HCl pH 8.5; 25 °C; furanose D-apiose.
D-apiose dehydrogenase (B9JK80), sequence (B9JK80 whole entry): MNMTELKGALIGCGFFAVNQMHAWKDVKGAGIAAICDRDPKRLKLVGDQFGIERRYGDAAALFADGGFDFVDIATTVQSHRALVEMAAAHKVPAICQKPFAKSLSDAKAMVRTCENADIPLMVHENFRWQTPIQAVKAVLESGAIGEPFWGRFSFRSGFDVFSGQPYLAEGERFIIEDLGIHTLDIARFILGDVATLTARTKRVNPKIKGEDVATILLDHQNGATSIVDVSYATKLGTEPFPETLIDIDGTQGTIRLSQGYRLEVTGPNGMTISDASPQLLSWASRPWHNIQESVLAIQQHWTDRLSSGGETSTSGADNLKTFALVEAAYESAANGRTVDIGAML

D-apionate lactonase / D-apionolactonase (A6X3G3, "hypothetical" protein), sequence (A6X3G3 whole entry, looked up, one chain of several): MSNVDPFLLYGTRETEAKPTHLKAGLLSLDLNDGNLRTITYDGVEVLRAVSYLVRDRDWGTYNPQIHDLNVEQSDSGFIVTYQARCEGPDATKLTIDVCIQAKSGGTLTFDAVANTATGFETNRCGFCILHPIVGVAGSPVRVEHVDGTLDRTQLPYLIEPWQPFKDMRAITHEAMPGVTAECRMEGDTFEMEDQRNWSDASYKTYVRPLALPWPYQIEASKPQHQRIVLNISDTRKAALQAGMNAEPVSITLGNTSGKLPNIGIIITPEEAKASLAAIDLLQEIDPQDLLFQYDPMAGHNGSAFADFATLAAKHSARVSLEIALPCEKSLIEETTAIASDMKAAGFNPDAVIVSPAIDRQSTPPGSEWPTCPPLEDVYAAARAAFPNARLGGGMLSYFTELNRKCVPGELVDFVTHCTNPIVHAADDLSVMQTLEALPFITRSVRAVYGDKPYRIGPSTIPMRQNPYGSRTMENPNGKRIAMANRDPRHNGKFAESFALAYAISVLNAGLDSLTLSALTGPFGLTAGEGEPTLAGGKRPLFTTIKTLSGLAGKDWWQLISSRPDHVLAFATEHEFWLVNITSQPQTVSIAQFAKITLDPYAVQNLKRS

As for `O=C1OCC(O)(CO)[C@H]1O` (stereo partly drawn) [D-apionolactone], the “1H NMR, D-apionolactone generated in situ by B9JK80” value in assay [1] was “it hydrolyzed D-apionolactone to D-apionate”.

Turning to `O=C[C@H](O)C(O)(CO)CO` [D-apiose], the KM entry in assay [2] is reported as “(B9JK80) catalyzed oxidation of D-apiose to D-apionolactone using NAD^+”.
